These results are taken from PMC4393935, “A Pharmacokinetic Study of Antimalarial 3,5-Diaryl-2-aminopyridine Derivatives” (Malaria Research and Treatment, 2015).

Where two headings read alike, the source gives them in different places.

For data set [1], the system named is human Ether-à-go-go-Related Gene (hERG). More on the design: method as in PMID 23189922. The conditions noted are these: result in words; cited from earlier work.
On the set-up of data set [2]: method as in PMID 23189922. The conditions noted are these: result in words; cited from earlier work.
A further data set concerns P. berghei. More on the design: method as in PMID 23189922. Conditions: result in words; cited from earlier work.
A short description of data set [3]: Pharmacokinetic study in C57BL/6 mice after oral and intravenous dosing, blood levels by LC-MS/MS. The format is in vivo. Conditions: for T 1/2 (apparent terminal half-life) / Cmax / half-life / AUC(0-inf) / clearance / Vd: mean ± SD of five mice; for Cmax: read-out: C Max (maximum blood concentration); for half-life: read-out: T 1/2 (apparent terminal half-life); for bioavailability: read-out: BA (oral bioavailability); for AUC(0-inf) / clearance / Vd: mouse; for AUC(0-inf): read-out: AUC0–∞ (total exposure) (converted); for clearance: read-out: CL (blood clearance); for Vd: read-out: Vss (volume of distribution). As for the experimental part: Male and female C57BL/6 mice (20–30 g) were obtained from the University of Cape Town Medical School Animal Unit. The mice were housed in ventilated cages at room temperature (approximately 22°C) with a constant supply of food and water and were monitored twice daily. The study was authorized by the University of Cape Town's Faculty of Health Science Animal Research Ethics Committee before its commencement (Reference number 012/020). All the work was performed according to the guidelines established by Austin and colleagues.
The compounds (Figure 1) were dissolved in DMSO and diluted further with phosphate buffered saline (PBS) to give a final DMSO concentration of 1%.
Comprehensive PK studies were performed on groups of five animals to determine the pharmacokinetic properties of the test compounds. This involved the oral dosing (200 μL) of 10-week-old C57BL/6 male mice at 20 mg/kg and intravenous dosing (100 μL) under anesthesia at 4 mg/kg via the dorsal penile vein. For the oral dosage a gavage needle was used for the administration of test compounds directly into the lower esophagus or stomach. Blood samples (approximately 30 μL) were collected serially by needle prick on the tail vein near to the tip of the tail at 0, 0.17, 0.5, 1, 2, 3, 5, 7, and 9 hours after dosing. Lithium-heparin-coated tubes were used to collect the blood samples. The collected blood samples were placed on ice immediately after sampling and were frozen at −80°C until analyzed.
The blood samples were brought to room temperature and then mixed by vortexing to ensure homogeneity. Twenty microliters of blood was mixed with 50 μL Milli-Q water and 150 μL acetonitrile. The sample was vortexed for 15 seconds, sonicated for 10 minutes, and centrifuged at 13000 ×g for 5 minutes. The supernatant was transferred to a flat-bottom glass insert and placed in a glass vial for analysis.
The liquid chromatography (LC) system employed was an ultrafast liquid chromatography (UFLC) system (Shimadzu) and the separation of the compounds was performed on a Phenomenex, Luna 5 μm PFP(2), 100 Å, and 50 mm × 2 mm analytical column. For method development, the compounds were prepared at 1 mg/mL stock in methanol and were further diluted with 50% acetonitrile: 0.1% formic acid to make a final concentration of 1 μg/mL. Analyst software version 1.5.2 (AB Sciex) was employed for data acquisition, peak-area integration, and quantitation of compounds in blood samples.
The mobile phase A consisted of 0.1% formic acid in water (v/v) and mobile phase B consisted of acetonitrile. Samples were maintained at 4°C until injection. The flow rate was set at 500 μL/min and the temperature of the column was maintained at 40°C. For the separation of the compounds the mobile phase was increased from 5% to 95% B over 2 minutes and returned to 5% B within 0.1 minutes and then equilibrated for 3 minutes. Calibration curves were derived in each analytical run in duplicate and were employed to extrapolate the concentration of the compounds in the blood samples.
The MS system consisted of an AB Sciex 3200 Q-Trap mass spectrometer which was operated at unit resolution in the multiple reaction monitoring (MRM) mode. The calibration range for all the compounds was between 7.8 and 1000 ng/mL and the accuracy (%Nom) for the calibration curves was between 90.31 and 104.0%.
Noncompartmental analysis was performed on each individual set of data using PK Solutions 2.0 Pharmacokinetic Analysis Software (Summit Research Services, Montrose, USA), which uses an automated Excel-based program. […]

The conditions of data set [4]: male Sprague Dawley rats, cited from earlier work.
Setting [5] is: male, C57BL/6, mouse, whole blood, iv, 4 mg/kg, IV, 4 mg/kg, blood.
Where [6] appears, read: male, C57BL/6, mouse, whole blood, oral, oral 20 mg/kg vs IV 4 mg/kg.
The mark [7] stands for this setting: male, C57BL/6, mouse, whole blood, po, 20 mg/kg, oral, 20 mg/kg, blood.
Setting [8] is: male, C57BL/6, mouse, whole blood, po, 20 mg/kg, oral, 20 mg/kg, blood, read-out: T Max.
The mark [9] stands for this setting: male, whole blood, IV, 4 mg/kg, blood.
Where [10] appears, read: male, whole blood, oral, 20 mg/kg, blood.
[11] abbreviates: oral, 20 mg/kg, blood, 20 mg/kg.

Turning to `Nc1ncc(-c2ccc(C(=O)N3CCOCC3)cc2)cc1-c1ccc(C(F)(F)F)cc1` [Compound 1], in data set [1], the “hERG activity compared to the parent compound 3” value is “reduced hERG activity”. Moreover, the metabolic stability result in data set [2] is recorded as “showed metabolic stability”. In the data set on P. berghei, the “activity in a P. berghei infected mouse model” value is “displayed activity”. The “T 1/2 (apparent terminal half-life)” value amounted to 0.87 ± 0.03 h in data set [3] (IV, 4 mg/kg, blood) and 2.53 ± 0.1 h in data set [3] (oral, 20 mg/kg, blood). The values for the Cmax in data set [3] (setting [5]), in data set [3] (setting [7]) and in data set [3] (setting [11]) were 2110 ± 60 nM, 1900 nM and 1920 ± 30 nM, respectively. Further, the figures for the half-life in data set [3] (setting [5]) and in data set [3] (setting [7]) were 0.68 to 0.87 h and 2.5 to 3 h, respectively. Besides, in data set [3] (setting [6]), the bioavailability amounted to 69 ± 19%. Moreover, the Tmax in data set [3] (setting [8]) was not above 1 h. The AUC(0-inf) in data set [3] (setting [9]) is 1.72 µM·h; in data set [3] (setting [10]) it was 5.99 µM·h. Besides, the clearance in data set [3] (male, whole blood, IV, 4 mg/kg) was determined as 83.6 ± 12 mL/min/kg. Besides, in data set [3] (male, whole blood, IV, 4 mg/kg), the Vd stood at 9.51 ± 1 L/kg. The “T Max” value in data set [3] (oral, 20 mg/kg, blood) amounted to 1 h.

On to `CNS(=O)(=O)c1ccc(-c2cnc(N)c(-c3ccc(C(F)(F)F)nc3)c2)cc1` [Compound 2], for which the “hERG activity compared to the parent compound 3” value in data set [1] is “reduced hERG activity”. Moreover, the metabolic stability entry in data set [2] is given as “showed metabolic stability”. For the same molecule, the “activity in a P. berghei infected mouse model” value in the data set with P. berghei is given as “displayed activity”. The “T 1/2 (apparent terminal half-life)” value in data set [3] (IV, 4 mg/kg, blood) turned out to be 0.68 ± 0.6 h; in data set [3] (oral, 20 mg/kg, blood), 2.96 ± 0.2 h. The Cmax in data set [3] (setting [5]) was determined as 960 ± 60 nM; in data set [3] (setting [7]), 3300 nM; in data set [3] (setting [11]), 3340 nM. The half-life was 0.68 to 0.87 h in data set [3] (setting [5]) and 2.5 to 3 h in data set [3] (setting [7]). For the same molecule, the bioavailability in data set [3] (setting [6]) came out at 59.7%. For the same molecule, the Tmax was not above 1 h in data set [3] (setting [8]) and not above 0.5 h in data set [3] (male, C57BL/6, mouse, whole blood, po, 20 mg/kg, oral, 20 mg/kg, blood, read-out: time to maximum concentration). For the same molecule, the AUC(0-inf) in data set [3] (setting [9]) is 1.75 µM·h; in data set [3] (setting [10]), 5.23 µM·h. For the same molecule, the clearance in data set [3] (male, whole blood, IV, 4 mg/kg) came out at 92.6 ± 19 mL/min/kg. Also, the Vd in data set [3] (male, whole blood, IV, 4 mg/kg) is 27 ± 1.3 L/kg. The “BA (oral bioavailability)” value in data set [3] (oral 20 mg/kg vs IV 4 mg/kg) worked out at 60 ± 5%.

For the molecule `COc1ccc(-c2cc(-c3ccc(S(C)(=O)=O)cc3)cnc2N)cn1` [Compound 3], the “apparent t 1/2” value in data set [4] (dosed intravenously) is 8 h; in data set [4] (dosed orally) it was 6.5 h. The AUC in data set [4] (intravenous) is 789 µM·min; in data set [4] (oral) it was 6880 µM·min. The clearance rate in data set [4] is 18.3 mL/min/kg. For the same molecule, the oral bioavailability in data set [4] is given as more than 100%.

The term bioavailability denotes dose-corrected exposure relative to a reference, in per cent. The AUC is concentration integrated over time.
